Measured values as given in the supplement of paper PMC10307832.

What was measured:
Assay in all cases: relative viability (nuclei count vs DMSO), 5 days (fraction); higher = more cells survive
201T = test system: 201T
How it was run: (§1)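 Lung cancer cell lines were seeded in 1536-well plates and dosed by pin tool the next day, with either a single drug or a fixed anchor-drug dose combined with five library-drug doses (not always all listed) spaced in √10 steps. Five days later, one step fixed the cells and stained their nuclei (final 0.05% Triton X-100, 1% formaldehyde, 1 ug/ml Hoechst), and nuclei were counted on 4× images. Relative viability is the nuclei count in treated wells divided by the count in vehicle wells, and each value is the median of duplicate plates.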

A-427 = test system: A-427
How it was run: as §1

COR-L23 = test system: COR-L23
How it was run: as §1

HARA = test system: HARA
How it was run: as §1

HCC-78 = test system: HCC-78
How it was run: as §1

LCLC-103H = test system: LCLC-103H
How it was run: as §1

LCLC-97TM1 = test system: LCLC-97TM1
How it was run: as §1

LK-2 = test system: LK-2
How it was run: as §1

LOU-NH91 = test system: LOU-NH91
How it was run: as §1

LXF-289 = test system: LXF-289
How it was run: as §1

NCI-H1650 = test system: NCI-H1650
How it was run: as §1

NCI-H1651 = test system: NCI-H1651
How it was run: as §1

NCI-H1793 = test system: NCI-H1793
How it was run: as §1

NCI-H2347 = test system: NCI-H2347
How it was run: as §1

NCI-H23 = test system: NCI-H23
How it was run: as §1

NCI-H2405 = test system: NCI-H2405
How it was run: as §1

NCI-H520 = test system: NCI-H520
How it was run: as §1

NCI-H522 = test system: NCI-H522
How it was run: as §1

NCI-H647 = test system: NCI-H647
How it was run: as §1

NCI-H838 = test system: NCI-H838
How it was run: as §1

PC-3 [JPC-3] = test system: PC-3 [JPC-3]
How it was run: as §1

RERF-LC-KJ = test system: RERF-LC-KJ
How it was run: as §1

UMC-11 = test system: UMC-11
How it was run: as §1

Work on `CCNC(=O)c1noc(-c2cc(C(C)C)c(O)cc2O)c1-c1ccc(CN2CCOCC2)cc1` [Luminespib] + O=C(CCCCCCC(=O)Nc1ccccc1)NO [Vorinostat] (partner 1 µM) yielded a relative viability (201T; first compound 0.002 µM) of 0.959, a relative viability (201T; first compound 0.006325 µM) of 0.872 and a relative viability (201T; first compound 0.02 µM) of 0.768. It also gave a relative viability (201T; first compound 0.06325 µM) of 0.913, a relative viability (201T; first compound 0.2 µM) of 0.324 and a relative viability (A-427; first compound 0.002 µM) of 0.855. For the same molecule, the relative viability (A-427; first compound 0.006325 µM) was 0.319, the relative viability (A-427; first compound 0.02 µM) was 0.807 and the relative viability (A-427; first compound 0.06325 µM) was 0.327. It also gave a relative viability (A-427; first compound 0.2 µM) of 0.247, a relative viability (COR-L23; first compound 0.002 µM) of 0.469 and a relative viability (COR-L23; first compound 0.006325 µM) of 0.364. For the same molecule, the relative viability (COR-L23; first compound 0.02 µM) was 0.396, the relative viability (COR-L23; first compound 0.06325 µM) was 0.0788 and the relative viability (COR-L23; first compound 0.2 µM) was 0.0814. It also gave a relative viability (HARA; first compound 0.002 µM) of 0.51, a relative viability (HARA; first compound 0.006325 µM) of 0.504 and a relative viability (HARA; first compound 0.02 µM) of 0.591. The relative viability (HARA; first compound 0.06325 µM) was 0.589, the relative viability (HARA; first compound 0.2 µM) was 0.132 and the relative viability (HCC-78; first compound 0.002 µM) was 0.381. For the same molecule, the relative viability (HCC-78; first compound 0.006325 µM) was 0.426, the relative viability (HCC-78; first compound 0.02 µM) was 0.283 and the relative viability (HCC-78; first compound 0.06325 µM) was 0.519. The relative viability (HCC-78; first compound 0.2 µM) was 0.356, the relative viability (LCLC-103H; first compound 0.002 µM) was 0.616 and the relative viability (LCLC-103H; first compound 0.006325 µM) was 0.718. For the same molecule, the relative viability (LCLC-103H; first compound 0.02 µM) was 0.661, the relative viability (LCLC-103H; first compound 0.06325 µM) was 0.75 and the relative viability (LCLC-103H; first compound 0.2 µM) was 0.25. The relative viability (LCLC-97TM1; first compound 0.002 µM) was 0.555, the relative viability (LCLC-97TM1; first compound 0.006325 µM) was 0.545 and the relative viability (LCLC-97TM1; first compound 0.06325 µM) was 0.0694. It also gave a relative viability (LCLC-97TM1; first compound 0.2 µM) of 0.0638, a relative viability (LK-2; first compound 0.002 µM) of 0.305 and a relative viability (LK-2; first compound 0.006325 µM) of 0.374. For the same molecule, the relative viability (LK-2; first compound 0.02 µM) was 0.201, the relative viability (LK-2; first compound 0.06325 µM) was 0.146 and the relative viability (LK-2; first compound 0.2 µM) was 0.163. It also gave a relative viability (LOU-NH91; first compound 0.002 µM) of 0.935, a relative viability (LOU-NH91; first compound 0.006325 µM) of 0.872 and a relative viability (LOU-NH91; first compound 0.02 µM) of 0.647. It also gave a relative viability (LOU-NH91; first compound 0.06325 µM) of 0.335, a relative viability (LOU-NH91; first compound 0.2 µM) of 0.377 and a relative viability (LXF-289; first compound 0.002 µM) of 0.69. The relative viability (LXF-289; first compound 0.006325 µM) was 0.707, the relative viability (LXF-289; first compound 0.02 µM) was 1 and the relative viability (LXF-289; first compound 0.06325 µM) was 0.518. For the same molecule, the relative viability (LXF-289; first compound 0.2 µM) was 0.147, the relative viability (NCI-H1650; first compound 0.002 µM) was 0.478 and the relative viability (NCI-H1650; first compound 0.006325 µM) was 0.516. The relative viability (NCI-H1650; first compound 0.02 µM) was 0.388, the relative viability (NCI-H1650; first compound 0.06325 µM) was 0.139 and the relative viability (NCI-H1650; first compound 0.2 µM) was 0.135. For the same molecule, the relative viability (NCI-H1651; first compound 0.002 µM) was 0.516, the relative viability (NCI-H1651; first compound 0.006325 µM) was 0.481 and the relative viability (NCI-H1651; first compound 0.02 µM) was 0.371. The relative viability (NCI-H1651; first compound 0.06325 µM) was 0.542, the relative viability (NCI-H1651; first compound 0.2 µM) was 0.505 and the relative viability (NCI-H1793; first compound 0.002 µM) was 0.631. The relative viability (NCI-H1793; first compound 0.006325 µM) was 0.556, the relative viability (NCI-H1793; first compound 0.02 µM) was 0.271 and the relative viability (NCI-H1793; first compound 0.06325 µM) was 0.107. The relative viability (NCI-H1793; first compound 0.2 µM) was 0.122, the relative viability (NCI-H2347; first compound 0.002 µM) was 0.54 and the relative viability (NCI-H2347; first compound 0.006325 µM) was 0.413. The relative viability (NCI-H2347; first compound 0.02 µM) was 0.589, the relative viability (NCI-H2347; first compound 0.06325 µM) was 0.38 and the relative viability (NCI-H2347; first compound 0.2 µM) was 0.263. For the same molecule, the relative viability (NCI-H23; first compound 0.002 µM) was 0.632, the relative viability (NCI-H23; first compound 0.006325 µM) was 0.481 and the relative viability (NCI-H23; first compound 0.02 µM) was 0.315. For the same molecule, the relative viability (NCI-H23; first compound 0.06325 µM) was 0.0969, the relative viability (NCI-H23; first compound 0.2 µM) was 0.108 and the relative viability (NCI-H2405; first compound 0.002 µM) was 1.11. The relative viability (NCI-H2405; first compound 0.02 µM) was 0.884, the relative viability (NCI-H2405; first compound 0.06325 µM) was 0.194 and the relative viability (NCI-H2405; first compound 0.2 µM) was 0.165. For the same molecule, the relative viability (NCI-H520; first compound 0.002 µM) was 0.748, the relative viability (NCI-H520; first compound 0.006325 µM) was 0.747 and the relative viability (NCI-H520; first compound 0.02 µM) was 0.624. For the same molecule, the relative viability (NCI-H520; first compound 0.06325 µM) was 0.197, the relative viability (NCI-H520; first compound 0.2 µM) was 0.166 and the relative viability (NCI-H522; first compound 0.002 µM) was 0.81. The relative viability (NCI-H522; first compound 0.006325 µM) was 0.904, the relative viability (NCI-H522; first compound 0.02 µM) was 0.772 and the relative viability (NCI-H522; first compound 0.06325 µM) was 0.607. The relative viability (NCI-H522; first compound 0.2 µM) was 0.354, the relative viability (NCI-H647; first compound 0.002 µM) was 0.584 and the relative viability (NCI-H647; first compound 0.006325 µM) was 0.381. The relative viability (NCI-H647; first compound 0.02 µM) was 0.646, the relative viability (NCI-H647; first compound 0.06325 µM) was 0.11 and the relative viability (NCI-H647; first compound 0.2 µM) was 0.0869. It also gave a relative viability (NCI-H838; first compound 0.002 µM) of 0.778, a relative viability (NCI-H838; first compound 0.006325 µM) of 0.655 and a relative viability (NCI-H838; first compound 0.02 µM) of 0.785. It also gave a relative viability (NCI-H838; first compound 0.06325 µM) of 0.151, a relative viability (NCI-H838; first compound 0.2 µM) of 0.153 and a relative viability (PC-3 [JPC-3]; first compound 0.002 µM) of 0.737. For the same molecule, the relative viability (PC-3 [JPC-3]; first compound 0.006325 µM) was 0.361, the relative viability (PC-3 [JPC-3]; first compound 0.02 µM) was 0.491 and the relative viability (PC-3 [JPC-3]; first compound 0.06325 µM) was 0.381. For the same molecule, the relative viability (PC-3 [JPC-3]; first compound 0.2 µM) was 0.287, the relative viability (RERF-LC-KJ; first compound 0.002 µM) was 0.624 and the relative viability (RERF-LC-KJ; first compound 0.006325 µM) was 0.707. It also gave a relative viability (RERF-LC-KJ; first compound 0.02 µM) of 0.473, a relative viability (RERF-LC-KJ; first compound 0.06325 µM) of 0.467 and a relative viability (RERF-LC-KJ; first compound 0.2 µM) of 0.216. It also gave a relative viability (UMC-11; first compound 0.002 µM) of 0.393, a relative viability (UMC-11; first compound 0.006325 µM) of 0.402 and a relative viability (UMC-11; first compound 0.02 µM) of 0.345. The relative viability (UMC-11; first compound 0.06325 µM) was 0.302 and the relative viability (UMC-11; first compound 0.2 µM) was 0.152.
